For data set [1], the system named is cortical synaptosomes. Put plainly: Synaptosomal respiration (Seahorse XF24). The class given is cell-based, mouse. The following applies: 100 µM iGP-1, 0.5 mM aminooxyacetate. On the procedure:
Synaptosomal respiration was tested in the Seahorse XF24 using published protocols, [41]. Synaptosomes (20 or 25 µg protein) were attached to polyethyleneimine and Geltrex-coated Seahorse plates by centrifugation in ionic medium, [41] containing 10 mM glucose. Attachment buffer was carefully replaced with ionic buffer containing DMSO, 100 µM iGP-1, 0.5 mM aminooxyacetate, or iGP-1 with aminooxyacetate, and either 10 mM pyruvate or 15 mM glucose. Plates were equilibrated for 20 min at 37°C then loaded into the instrument followed by measurement of basal respiration and injection of 5 µM FCCP (to induce maximal, uncoupled respiration) with 4 µg ⋅ mL^−1 oligomycin (to prevent compensatory reversal of ATP synthase). In some experiments, 10 mM oxamate was added with the FCCP/oligomycin to minimize regeneration of cytosolic NAD^+ by lactate dehydrogenase. Inhibition of the malate-aspartate shuttle was defined as the difference between maximal rates ± aminooxyacetate, expressed as % of control. Inhibition of the glycerol phosphate shuttle was the difference between maximal rates with aminooxyacetate ± iGP-1, as % of control.

Data set [2] relates to flavin mononucleotide site of complex I (site IF) plus matrix NAD-linked dehydrogenases (site IF/DH). Put plainly: Site-specific H2O2 production from site IF/DH in skeletal muscle mitochondria. The class given is biochemical, rat. The following applies: primary screen, ∼2.5 µM, average of duplicates. An outline of the steps: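 Isolated rat skeletal muscle mitochondria; H2O2 read by Amplex UltraRed with added SOD and HRP. Site IF/DH: 5 mM glutamate, 5 mM malate, 4 µM rotenone. Site IIF: palmitoylcarnitine or succinate with rotenone/antimycin A/myxothiazol. Site IIIQo: succinate, rotenone, antimycin A. Screen at 2.5 µM, normalised as % change from DMSO.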

The test system of data set [3] is skeletal muscle mitochondria. As to the kind of experiment: Mitochondrial membrane potential (ΔΨm, TMRM) powered by glutamate plus malate. The class given is biochemical, rat.
Data set [4] has as its system STHdhQ7 cells. As to the kind of experiment: Live cell imaging of iGP-1 fluorescence (ability to cross cellular membranes). The class given is cell-based. The following applies: 100 µM; intrinsic fluorescence in live cells. On the procedure:
The ability of iGP-1 to cross cellular membranes was evaluated in STHdhQ7 cells cultured at 33°C as described. Cells were seeded on collagen-coated, Lab-Tek chambered coverglass (Nunc) 48 h before use. Prior to imaging, cells were cultured for 45 min with 65 nM LysoTracker Red ±250 nM bafilomycin A1. Medium was then replaced with imaging buffer (120 mM NaCl, 3.5 mM KCl, 0.4 mM KH2PO4, 20 mM TES, 5 mM NaHCO3, 1.2 mM Na2SO4, 1.5 mM CaCl2, 0.5 mM MgCl2, 2 mM Glucose, and 0.2% BSA, pH 7.4) containing DMSO, 250 nM bafilomycin A1 or 100 µM iGP-1. Cells were imaged on a Nikon Eclipse Ti-PFS inverted microscope equipped with a Cascade 512B camera (Photometrics, Tucson, AZ), a Plan Fluor 100X/1.3 oil objective, an LB-LS17 Xe-arc light source (attenuated), 10–3 excitation and emission filter wheels (Sutter Instruments, Novato, CA), and an MS-2000 linear encoded motorized stage (ASI, Eugene, OR). The filter sets, given as excitation, dichroic mirror, emission in nm/bandwidth, were, for iGP-1 (1 s exposure), 340/26, 409, 460/80 and for LysoTracker Red (100 ms exposure), 543/22, 562, 588/21 (all from Semrock, Rochester, NY). Image acquisition was controlled by NIS Elements 4.0 (Nikon, Melville, NY). Images of cell-free wells containing buffer with DMSO or iGP-1 were used for background subtraction in Image Analyst MKII (Novato, CA).

As for `O=C(O)CCC(=O)Nc1ccc(-c2nc3ccccc3[nH]2)cc1` [iGP-1], the “effect on basal or maximal respiration with pyruvate” value in data set [1] (10 mM pyruvate) was “no effect”. The “effect on basal and maximal respiration with glucose” value in data set [1] (15 mM glucose, no oxamate) is “no effect”. In addition, the “IF/DH (% change from DMSO)” value in data set [2] was 4.1%. Further, in data set [3] (80 μM, 5 mM glutamate, 5 mM malate, with nigericin), the “ΔΨm with Glu + Mal + Nig (% change at 80 μM)” value is 4%. Besides, in data set [3] (80 μM, 5 mM glutamate, 5 mM malate, without nigericin), the “ΔΨm with Glu + Mal (% change at 80 μM)” value turned out to be 15%. For the same compound, the “ΔΨm (% change from DMSO)” value in data set [3] (primary screen, ∼2.5 µM, average of duplicates, glutamate and malate) is 0.154%. The “effect on ΔΨm powered by glutamate and malate” value in data set [3] (without or with nigericin) was “no effect”. Also, the “cell permeability” value in data set [4] was “readily crosses cellular membranes”.

The values are drawn from publication PMC3933693, “Novel Inhibitors of Mitochondrial sn-Glycerol 3-phosphate Dehydrogenase” (PLoS ONE, 2014).
